Conditions: for surface tension liquid-gas: Wilhelmg Plate Tensimeter; for mass density: Liquid, Vibrating tube method

CCOS(=O)(=O)[O-].CCn1cc[n+](C)c1 [1-ethyl-3-methylimidazolium ethyl sulfate]
Conditions | surface tension liquid-gas [mN/m]
292.91 K | 47.16
298.26 K | 46.9
303 K | 46.59
308.61 K | 46.35
313.41 K | 46.12
322.71 K | 45.5
332.09 K | 45.08

Conditions | mass density [kg/m3]
293.15 K, 100 kPa | 1241.3
293.15 K, 101.33 kPa | 1241.37
293.15 K, 250 kPa | 1241.4
293.15 K, 500 kPa | 1241.4
293.15 K, 1000 kPa | 1241.7
293.15 K, 1990 kPa | 1242.1
293.15 K, 4990 kPa | 1243.3
293.15 K, 10010 kPa | 1245.3
293.15 K, 14990 kPa | 1247.2
293.15 K, 20000 kPa | 1249.2
293.15 K, 24990 kPa | 1251.1
293.15 K, 30010 kPa | 1253
293.15 K, 35000 kPa | 1254.8
293.15 K, 40000 kPa | 1256.6
293.15 K, 45000 kPa | 1258.4
293.15 K, 50000 kPa | 1260.2
293.15 K, 55000 kPa | 1262
293.15 K, 60000 kPa | 1263.7
294.15 K, 101.33 kPa | 1240.67
295.15 K, 101.33 kPa | 1239.97
296.15 K, 101.33 kPa | 1239.28
297.15 K, 101.33 kPa | 1238.58
298.15 K, 101.33 kPa | 1237.88
299.15 K, 101.33 kPa | 1237.19
300.15 K, 101.33 kPa | 1236.5
301.15 K, 101.33 kPa | 1235.81
302.15 K, 101.33 kPa | 1235.12
303.15 K, 100 kPa | 1234.3
303.15 K, 101.33 kPa | 1234.43
303.15 K, 250 kPa | 1234.4
303.15 K, 500 kPa | 1234.5
303.15 K, 1000 kPa | 1234.7
303.15 K, 2010 kPa | 1235.1
303.15 K, 4990 kPa | 1236.3
303.15 K, 10010 kPa | 1238.4
303.15 K, 14990 kPa | 1240.4
303.15 K, 20000 kPa | 1242.4
303.15 K, 24990 kPa | 1244.3
303.15 K, 30010 kPa | 1246.3
303.15 K, 35010 kPa | 1248.1
303.15 K, 40000 kPa | 1250
303.15 K, 45000 kPa | 1251.8
303.15 K, 50000 kPa | 1253.6
303.15 K, 55000 kPa | 1255.4
303.15 K, 60000 kPa | 1257.1
304.15 K, 101.33 kPa | 1233.74
305.15 K, 101.33 kPa | 1233.05
306.15 K, 101.33 kPa | 1232.37
307.15 K, 101.33 kPa | 1231.69
308.15 K, 101.33 kPa | 1231
309.15 K, 101.33 kPa | 1230.32
310.15 K, 101.33 kPa | 1229.64
311.15 K, 101.33 kPa | 1228.96
312.15 K, 101.33 kPa | 1228.28
313.15 K, 100 kPa | 1227.5
313.15 K, 101.33 kPa | 1227.61
313.15 K, 250 kPa | 1227.5
313.15 K, 500 kPa | 1227.6
313.15 K, 2000 kPa | 1228.3
313.15 K, 4990 kPa | 1229.5
313.15 K, 10010 kPa | 1231.7
313.15 K, 14990 kPa | 1233.7
313.15 K, 20000 kPa | 1235.7
313.15 K, 25000 kPa | 1237.6
313.15 K, 30010 kPa | 1239.6
313.15 K, 35000 kPa | 1241.5
313.15 K, 40000 kPa | 1243.4
313.15 K, 44990 kPa | 1245.3
313.15 K, 50000 kPa | 1247.1
313.15 K, 54990 kPa | 1248.9
313.15 K, 60000 kPa | 1250.7
314.15 K, 101.33 kPa | 1226.93
315.15 K, 101.33 kPa | 1226.25
316.15 K, 101.33 kPa | 1225.58
317.15 K, 101.33 kPa | 1224.9
318.15 K, 101.33 kPa | 1224.23
319.15 K, 101.33 kPa | 1223.56
320.15 K, 101.33 kPa | 1222.89
321.15 K, 101.33 kPa | 1222.21
322.15 K, 101.33 kPa | 1221.54
323.15 K, 100 kPa | 1220.7
323.15 K, 101.33 kPa | 1220.88
323.15 K, 250 kPa | 1220.8
323.15 K, 500 kPa | 1220.9
323.15 K, 1010 kPa | 1221.1
323.15 K, 2010 kPa | 1221.6
323.15 K, 4990 kPa | 1222.9
323.15 K, 10010 kPa | 1225
323.15 K, 14990 kPa | 1227.1
323.15 K, 20010 kPa | 1229.1
323.15 K, 25000 kPa | 1231.1
323.15 K, 30010 kPa | 1233.1
323.15 K, 35000 kPa | 1235.1
323.15 K, 40000 kPa | 1237
323.15 K, 45000 kPa | 1238.9
323.15 K, 50000 kPa | 1240.8
323.15 K, 55000 kPa | 1242.6
323.15 K, 60000 kPa | 1244.5
324.15 K, 101.33 kPa | 1220.21
325.15 K, 101.33 kPa | 1219.54
326.15 K, 101.33 kPa | 1218.87
327.15 K, 101.33 kPa | 1218.21
328.15 K, 101.33 kPa | 1217.54
329.15 K, 101.33 kPa | 1216.88
330.15 K, 101.33 kPa | 1216.21
331.15 K, 101.33 kPa | 1215.55
332.15 K, 101.33 kPa | 1214.89
333.15 K, 100 kPa | 1214.1
333.15 K, 101.33 kPa | 1214.23
333.15 K, 250 kPa | 1214.1
333.15 K, 500 kPa | 1214.2
333.15 K, 1000 kPa | 1214.4
333.15 K, 2010 kPa | 1214.9
333.15 K, 5000 kPa | 1216.2
333.15 K, 10010 kPa | 1218.4
333.15 K, 14990 kPa | 1220.5
333.15 K, 20000 kPa | 1222.7
333.15 K, 24990 kPa | 1224.7
333.15 K, 30000 kPa | 1226.7
333.15 K, 34990 kPa | 1228.7
333.15 K, 40000 kPa | 1230.7
333.15 K, 45020 kPa | 1232.6
333.15 K, 50000 kPa | 1234.5
333.15 K, 54990 kPa | 1236.4
333.15 K, 60000 kPa | 1238.3
334.15 K, 101.33 kPa | 1213.56
335.15 K, 101.33 kPa | 1212.9
336.15 K, 101.33 kPa | 1212.24
337.15 K, 101.33 kPa | 1211.58
338.15 K, 101.33 kPa | 1210.92
339.15 K, 101.33 kPa | 1210.26
340.15 K, 101.33 kPa | 1209.6
341.15 K, 101.33 kPa | 1208.95
